Source: patent US12226449B2, “Materials and methods for the prevention of rheumatoid arthritis” (The University of Toledo, priority 2018, dated 2025)
Entries after “also recorded” stand apart in the source; their conditions may differ.

Assays:
Type in all cases: cell-based
human PBMCs [1] = experiment: T cell polarization of PBMCs by flow cytometry (CD4, CD366, IL-17, CD8, CD69); conditions: drug present during 14-3-3ζ incubation, prednisolone, prednisone, TJU103 1 μg/ml, cyclophosphamide 0.1 μg/ml, BV02 5 nM
Experimental: Cells were plated with 14-3-3ζ protein in a 96-well plate for 14 days at 37° C. in complete RPMI culture medium. Phytohemagglutinin (PHA) was used as a positive control. 10 μl MTT was added at a concentration of 5 mg/mL, and the plate was further incubated at 37° C. in the dark for 3 hours. Supernatant was then removed, and 100 μL DMSO was added for another hour before reading the absorbance at 570 nm using FLUOstar Omega microplate reader (BMG Labtech). For T cell differentiation, PBMCs were incubated with 1 μg/ml of 14-3-3ζ for 7 days followed by either the cellular staining for FACS analysis or ELISPOT as per manufacture's protocol. […] PBMCs incubated with 14-3-3ζ for 7 days at 37° C. were fixed in 2% paraformaldehyde for an hour, and washed with PBS. […] For surface staining, cells were stained in 50 μL PBS with 5 μl per million cells antibody for 30 minutes in the dark on ice. For intracellular staining, cells were permeabilized with Triton for 10-15 min. After staining, cells were washed with PBS and resuspended in 1 mL PBS for analysis. The following antibodies from Biolegend Inc. were used: […] Cells were sorted at FACSCanto II system (BD Biosciences) and analyzed using FlowJo software (version 10). A gate was created around an initial population of cells in the FSC-SSC plot, and this population of cells was further analyzed for CD4, CD366, and IL-17 expression. Unstained and isotype labelled cells were used as a control for setting the gates.

human PBMCs [2] = experiment: ELISPOT assay of IFN-γ and IL-17 secreting cells; conditions: for effect on 14-3-3ζ-induced IFN-γ secreting cells / effect on 14-3-3ζ-induced IL-17 secreting cells: drug present during 14-3-3ζ incubation
Experimental: Cells were plated with 14-3-3ζ protein in a 96-well plate for 14 days at 37° C. in complete RPMI culture medium. Phytohemagglutinin (PHA) was used as a positive control. 10 μl MTT was added at a concentration of 5 mg/mL, and the plate was further incubated at 37° C. in the dark for 3 hours. Supernatant was then removed, and 100 μL DMSO was added for another hour before reading the absorbance at 570 nm using FLUOstar Omega microplate reader (BMG Labtech). For T cell differentiation, PBMCs were incubated with 1 μg/ml of 14-3-3ζ for 7 days followed by either the cellular staining for FACS analysis or ELISPOT as per manufacture's protocol. For testing the effect of drugs, prednisolone, prednisone, as well as TJU103, were used at 1 μg/ml concentration and cyclophosphamide was used at 0.1 μg/ml concentration.
The protocol was adopted from Immunospot kit from Cellular Technology Limited. In short, PBMCs incubated with 14-3-3ζ for 7 days were plated on the antibody coated ELISPOT plates. About 100,000 cells/well were added and incubated for 2 days at 37° C. followed by the developing protocol. Plates were read with a Quantihub ELISPOT plate reader and manually counted.

human PBMCs [3] = experiment: ELISA of secreted (accumulated) cytokines of PBMCs; conditions: drug present during 14-3-3ζ incubation
human PBMCs [4] = experiment: PBMC proliferation, MTT assay; conditions: for effect on 14-3-3ζ-induced PBMC proliferation: inhibitor present during 14-3-3ζ incubation, BV02 5 nM, TJU103 1 μg/ml
Experimental: Blood from healthy donors was collected as per the approved IRB protocol. The protocol for isolation of PBMCs was previously reported. In short, whole blood was diluted with an equal volume of RPMI before layering on Ficoll-Paque PLUS in a 15 mL tube. Tubes were then centrifuged for 25 minutes with the brakes off at 950 g. PBMCs were collected from the layer between the plasma and Ficoll liquid. PBMCs were then washed twice with RPMI, with 7 min spins at 350×g to pellet the cells. Finally, cells were resuspended in complete RPMI before counting and plating. […] Phytohemagglutinin (PHA) was used as a positive control. 10 μl MTT was added at a concentration of 5 mg/mL, and the plate was further incubated at 37° C. in the dark for 3 hours. Supernatant was then removed, and 100 μL DMSO was added for another hour before reading the absorbance at 570 nm using FLUOstar Omega microplate reader (BMG Labtech). For T cell differentiation, PBMCs were incubated with 1 μg/ml of 14-3-3ζ for 7 days followed by either the cellular staining for FACS analysis or ELISPOT as per manufacture's protocol.

human PBMCs [5] = experiment: ELISPOT assay of IFN-γ and IL-17 secreting cells; conditions: PBMC treated with protein for 7 d

## O=P1(N(CCCl)CCCl)NCCCO1 (stereo not drawn) [cyclophosphamide]
Human PBMCs [1]
  effect on 14-3-3ζ-induced CD366 positive CD4 cells (Th1): significant suppression; also recorded: mild inhibition
  effect on 14-3-3ζ-induced IL-17 positive CD4 cells (Th17): only milder inhibition; also recorded: no sufficient inhibition; also recorded: no effect
Human PBMCs [2]
  effect on 14-3-3ζ-induced IFN-γ secreting cells: mild inhibition; also recorded: impacted only IFN-γ producing cells

## C[C@]12C=CC(=O)C=C1CC[C@@H]1[C@@H]2[C@@H](O)C[C@@]2(C)[C@H]1CC[C@]2(O)C(=O)CO [prednisolone]
Human PBMCs [1]
  effect on 14-3-3ζ-induced CD366 positive CD4 cells (Th1): mild effect
  effect on 14-3-3ζ-induced IL-17 positive CD4 cells (Th17): significant suppression; also recorded: strongly inhibited
Human PBMCs [1]; listed as Prednisolone
  effect on 14-3-3ζ-induced CD366 positive CD4 cells (Th1): suppressed
  effect on 14-3-3ζ-induced IL-17 positive CD4 cells (Th17): suppressed
Human PBMCs [2]
  effect on 14-3-3ζ-induced IFN-γ secreting cells: Significant suppression; also recorded: strong inhibition
  effect on 14-3-3ζ-induced IL-17 secreting cells: significant suppression; also recorded: strong inhibition
Human PBMCs [3]
  effect on 14-3-3ζ-induced accumulated IL-17 level: Significant suppression; also recorded: reproduced effect on accumulated IL-17
  effect on IL-6 level: bare minimum effect

## C[C@]12C=CC(=O)C=C1CC[C@@H]1[C@@H]2C(=O)C[C@@]2(C)[C@H]1CC[C@]2(O)C(=O)CO [prednisone]
Human PBMCs [2]
  effect on 14-3-3ζ-induced IFN-γ secreting cells: no effect
  effect on 14-3-3ζ-induced IL-17 secreting cells: no effect

## Cc1c(N2C(=O)c3ccc(C(=O)O)cc3C2=O)c(=O)n(-c2ccccc2)n1C [BV02]
Human PBMCs [4]; BV02 present
  effect on PHA induced PBMC proliferation: no suppression; also recorded: did not affect
Human PBMCs [4]
  effect on 14-3-3ζ-induced PBMC proliferation: no effect; also recorded: did not show any difference
Human PBMCs [1]
  effect on 14-3-3ζ-induced CD366 positive CD4 cells (Th1): no effect; also recorded: did not affect
  effect on 14-3-3ζ-induced IL-17 positive CD4 cells (Th17): no effect; also recorded: did not affect
Human PBMCs [2]; BV02 present
  effect on PHA induced IFN-γ secreting cells: did not affect
  effect on PHA induced IL-17 secretion: partial inhibition
Human PBMCs [2]
  effect on 14-3-3ζ-induced IFN-γ secreting cells: did not show an increase; also recorded: significant inhibition
  effect on 14-3-3ζ-induced IL-17 secreting cells: did not show an increase; also recorded: significant inhibition

## O=C(NN=Cc1c[nH]c2ccccc12)c1ccncc1 [TJU103]
Human PBMCs [4]
  effect on 14-3-3ζ-induced PBMC proliferation: did not inhibit
Human PBMCs [1]
  effect on 14-3-3ζ-induced CD366 positive CD4 cells (Th1): suppressed
  effect on 14-3-3ζ-induced IL-17 positive CD4 cells (Th17): suppressed
Human PBMCs [2]
  effect on 14-3-3ζ-induced IFN-γ secreting cells: stronger decrease; also recorded: suppressed; also recorded: Inhibition
  effect on 14-3-3ζ-induced IL-17 secreting cells: less sensitive to inhibition
Human PBMCs [2]; listed as TJU131
  effect on 14-3-3ζ-induced IFN-γ secreting cells: mild suppression
  effect on 14-3-3ζ-induced IL-17 secreting cells: mild suppression
Human PBMCs [3]
  effect on 14-3-3ζ-induced accumulated IL-17 level: no difference
  effect on IL-6 level: no difference
Human PBMCs [3]; listed as TJU131
  effect on 14-3-3ζ-induced accumulated IL-17 level: no significant difference

B1: 14-3-3ε: another 14-3-3 isoform, used for specificity and comparison (protein, UniProt P62258 1-255, looked up)
14-3-3 protein epsilon: MDDREDLVYQAKLAEQAERYDEMVESMKKVAGMDVELTVEERNLLSVAYKNVIGARRASWRIISSIEQKEENKGGEDKLKMIREYRQMVETELKLICCDILDVLDKHLIPAANTGESKVFYYKMKGDYHRYLAEFATGNDRKEAAENSLVAYKAASDIAMTELPPTHPIRLGLALNFSVFYYEILNSPDRACRLAKAAFDDAIAELDTLSEESYKDSTLIMQLLRDNLTLWTSDMQGDGEEQNKEALQDVEDENQ
Human PBMCs [5]; listed as 14-3-3e
  number of IFN-γ and IL-17 secreting cells: not replaced
Human PBMCs [5]; listed as 14-3-3 epsilon
  number of IFN-γ and IL-17 secreting cells: no significant effect
